This note sets out measurements from ChEMBL document CHEMBL1201862, “PubChem BioAssay data set” (2004).

SMILES strings stand for the structures. Activity calls are given as the source filed them. Where only a bound is given, the exact number is not on record here.

One assay deals with Cytochrome P450 2C19 (Homo sapiens, UniProt P33261). The experiment in a line: qHTS Assay for Inhibitors and Substrates of Cytochrome P450 2C19. [Related pubchem assays: 410 ]. Type of assay: ADME. The conditions noted are these: read-out: Potency.
Cytochrome P450 2C19, sequence (P33261 whole entry): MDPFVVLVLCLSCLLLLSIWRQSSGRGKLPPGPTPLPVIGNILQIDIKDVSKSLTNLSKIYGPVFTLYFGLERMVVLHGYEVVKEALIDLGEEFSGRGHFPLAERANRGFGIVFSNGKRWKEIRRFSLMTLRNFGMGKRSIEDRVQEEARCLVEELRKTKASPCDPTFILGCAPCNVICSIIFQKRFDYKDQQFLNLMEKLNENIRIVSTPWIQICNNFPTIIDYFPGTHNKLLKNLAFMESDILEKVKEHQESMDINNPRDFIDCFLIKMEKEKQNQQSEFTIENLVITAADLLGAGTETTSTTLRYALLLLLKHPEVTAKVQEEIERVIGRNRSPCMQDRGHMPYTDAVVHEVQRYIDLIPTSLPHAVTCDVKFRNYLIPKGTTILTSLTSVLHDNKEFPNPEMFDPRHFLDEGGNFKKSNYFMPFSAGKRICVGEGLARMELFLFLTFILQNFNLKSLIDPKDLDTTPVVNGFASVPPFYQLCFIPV
In the next assay the target is Cytochrome P450 2C9 (Homo sapiens, UniProt P11712). The conditions noted are these: Potency.
Cytochrome P450 2C9, sequence (P11712 whole entry): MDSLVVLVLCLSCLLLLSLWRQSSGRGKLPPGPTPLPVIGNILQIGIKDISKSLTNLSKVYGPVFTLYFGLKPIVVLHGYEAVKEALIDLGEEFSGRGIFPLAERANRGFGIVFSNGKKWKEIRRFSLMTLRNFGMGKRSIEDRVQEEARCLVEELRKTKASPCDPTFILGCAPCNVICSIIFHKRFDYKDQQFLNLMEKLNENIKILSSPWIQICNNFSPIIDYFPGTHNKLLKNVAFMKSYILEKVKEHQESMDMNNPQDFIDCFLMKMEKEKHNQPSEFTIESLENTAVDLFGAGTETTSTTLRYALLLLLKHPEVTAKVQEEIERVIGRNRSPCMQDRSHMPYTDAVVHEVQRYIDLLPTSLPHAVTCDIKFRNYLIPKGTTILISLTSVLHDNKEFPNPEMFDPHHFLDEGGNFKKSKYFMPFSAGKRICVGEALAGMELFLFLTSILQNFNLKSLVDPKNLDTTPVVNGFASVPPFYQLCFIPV
The next assay deals with HeLa. The experiment in a line: HeLa cell cytotoxicity, dose response, cytotoxicity control, 24 h, cherry-picked samples (AID 504726).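 Further: potency for cytotoxicity as loss of luminescence signal.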 The conditions noted are these: Homo sapiens. In kind it is functional, cell-based.
For a further assay, the target named is T1, ORF 73 (Human herpesvirus 8, UniProt O40947).
T1 sequence (O40947 whole entry): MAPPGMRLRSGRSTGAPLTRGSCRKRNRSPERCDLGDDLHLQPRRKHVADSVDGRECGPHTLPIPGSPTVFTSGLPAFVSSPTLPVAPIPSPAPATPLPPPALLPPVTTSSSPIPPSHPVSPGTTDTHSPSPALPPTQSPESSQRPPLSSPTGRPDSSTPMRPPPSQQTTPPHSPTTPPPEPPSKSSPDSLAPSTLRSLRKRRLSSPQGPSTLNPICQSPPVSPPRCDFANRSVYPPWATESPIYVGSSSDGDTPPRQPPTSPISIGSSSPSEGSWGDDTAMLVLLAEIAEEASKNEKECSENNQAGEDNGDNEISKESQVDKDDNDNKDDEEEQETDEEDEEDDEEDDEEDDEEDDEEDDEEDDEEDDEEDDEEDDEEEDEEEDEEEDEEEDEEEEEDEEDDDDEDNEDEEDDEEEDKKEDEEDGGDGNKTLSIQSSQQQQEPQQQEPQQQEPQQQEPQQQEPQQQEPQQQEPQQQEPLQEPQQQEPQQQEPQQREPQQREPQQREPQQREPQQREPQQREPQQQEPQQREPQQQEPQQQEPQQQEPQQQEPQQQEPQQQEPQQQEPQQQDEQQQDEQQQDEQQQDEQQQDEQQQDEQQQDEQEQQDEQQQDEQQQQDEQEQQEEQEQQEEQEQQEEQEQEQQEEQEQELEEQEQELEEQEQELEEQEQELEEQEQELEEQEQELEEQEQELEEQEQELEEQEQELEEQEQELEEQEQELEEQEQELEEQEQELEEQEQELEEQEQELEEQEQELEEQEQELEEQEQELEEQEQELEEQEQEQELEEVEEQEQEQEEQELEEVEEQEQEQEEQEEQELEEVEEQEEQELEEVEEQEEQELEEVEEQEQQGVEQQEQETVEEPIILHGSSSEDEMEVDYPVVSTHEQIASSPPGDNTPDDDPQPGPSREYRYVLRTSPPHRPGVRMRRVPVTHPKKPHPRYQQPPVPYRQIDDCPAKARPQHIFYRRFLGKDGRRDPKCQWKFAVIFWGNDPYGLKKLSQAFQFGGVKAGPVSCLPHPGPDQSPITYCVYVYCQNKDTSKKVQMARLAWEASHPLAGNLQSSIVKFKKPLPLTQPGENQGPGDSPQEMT
The experiment in a line: inhibitors of C-LANA binding to LBS DNA, dose response, biochemical, fluorescence polarization, cherry-picked samples (AID 504725).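 Further: fluorescence polarization of a labeled DNA duplex reporting LANA DNA binding; potency is for inhibitors that block LANA binding to the DNA.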 On the set-up: species or system Human gammaherpesvirus 8. On the technique in general: In fluorescence polarisation assays a small probe gives low polarisation when free and higher when bound to something large.

The target in assay [1] is Histone-lysine N-methyltransferase NSD2 (Homo sapiens, UniProt O96028). Type of assay: biochemical.
Histone-lysine N-methyltransferase NSD2, sequence (O96028 whole entry): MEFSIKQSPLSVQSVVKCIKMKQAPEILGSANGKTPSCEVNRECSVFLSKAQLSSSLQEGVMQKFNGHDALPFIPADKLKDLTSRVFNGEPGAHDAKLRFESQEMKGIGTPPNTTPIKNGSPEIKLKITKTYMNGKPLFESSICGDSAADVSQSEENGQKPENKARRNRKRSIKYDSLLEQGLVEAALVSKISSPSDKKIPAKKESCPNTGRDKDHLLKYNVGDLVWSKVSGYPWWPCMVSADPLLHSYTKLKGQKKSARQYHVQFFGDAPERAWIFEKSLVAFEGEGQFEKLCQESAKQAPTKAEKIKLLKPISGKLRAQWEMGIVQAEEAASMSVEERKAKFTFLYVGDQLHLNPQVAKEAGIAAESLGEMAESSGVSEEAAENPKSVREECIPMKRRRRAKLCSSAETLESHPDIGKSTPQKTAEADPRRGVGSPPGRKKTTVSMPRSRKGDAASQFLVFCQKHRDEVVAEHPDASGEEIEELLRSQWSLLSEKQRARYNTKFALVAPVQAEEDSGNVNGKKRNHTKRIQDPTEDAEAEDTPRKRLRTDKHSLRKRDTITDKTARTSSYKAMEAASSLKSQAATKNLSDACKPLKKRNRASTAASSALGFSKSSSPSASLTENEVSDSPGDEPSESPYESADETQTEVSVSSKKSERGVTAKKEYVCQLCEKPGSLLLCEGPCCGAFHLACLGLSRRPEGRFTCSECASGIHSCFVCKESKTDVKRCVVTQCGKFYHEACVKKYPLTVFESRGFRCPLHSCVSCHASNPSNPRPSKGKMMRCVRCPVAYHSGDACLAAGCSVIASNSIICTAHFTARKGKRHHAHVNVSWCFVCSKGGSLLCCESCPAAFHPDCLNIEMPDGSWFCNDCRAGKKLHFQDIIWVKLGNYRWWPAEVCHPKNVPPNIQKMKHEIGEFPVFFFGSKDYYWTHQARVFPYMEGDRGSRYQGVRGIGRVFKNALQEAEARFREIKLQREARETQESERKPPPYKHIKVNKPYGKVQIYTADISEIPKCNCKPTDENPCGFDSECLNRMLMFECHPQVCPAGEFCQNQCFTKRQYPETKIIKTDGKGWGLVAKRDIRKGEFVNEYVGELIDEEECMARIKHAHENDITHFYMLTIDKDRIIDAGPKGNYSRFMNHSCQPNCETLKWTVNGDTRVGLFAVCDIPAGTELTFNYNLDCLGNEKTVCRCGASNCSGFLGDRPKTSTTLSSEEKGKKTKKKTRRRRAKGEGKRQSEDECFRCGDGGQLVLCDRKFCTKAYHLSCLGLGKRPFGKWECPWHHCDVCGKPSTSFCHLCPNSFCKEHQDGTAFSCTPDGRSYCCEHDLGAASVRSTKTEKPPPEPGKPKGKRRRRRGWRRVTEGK
The next assay concerns the target T2, Hexokinase HKDC1 (Homo sapiens, UniProt Q2TB90).
T2 sequence (Q2TB90 whole entry): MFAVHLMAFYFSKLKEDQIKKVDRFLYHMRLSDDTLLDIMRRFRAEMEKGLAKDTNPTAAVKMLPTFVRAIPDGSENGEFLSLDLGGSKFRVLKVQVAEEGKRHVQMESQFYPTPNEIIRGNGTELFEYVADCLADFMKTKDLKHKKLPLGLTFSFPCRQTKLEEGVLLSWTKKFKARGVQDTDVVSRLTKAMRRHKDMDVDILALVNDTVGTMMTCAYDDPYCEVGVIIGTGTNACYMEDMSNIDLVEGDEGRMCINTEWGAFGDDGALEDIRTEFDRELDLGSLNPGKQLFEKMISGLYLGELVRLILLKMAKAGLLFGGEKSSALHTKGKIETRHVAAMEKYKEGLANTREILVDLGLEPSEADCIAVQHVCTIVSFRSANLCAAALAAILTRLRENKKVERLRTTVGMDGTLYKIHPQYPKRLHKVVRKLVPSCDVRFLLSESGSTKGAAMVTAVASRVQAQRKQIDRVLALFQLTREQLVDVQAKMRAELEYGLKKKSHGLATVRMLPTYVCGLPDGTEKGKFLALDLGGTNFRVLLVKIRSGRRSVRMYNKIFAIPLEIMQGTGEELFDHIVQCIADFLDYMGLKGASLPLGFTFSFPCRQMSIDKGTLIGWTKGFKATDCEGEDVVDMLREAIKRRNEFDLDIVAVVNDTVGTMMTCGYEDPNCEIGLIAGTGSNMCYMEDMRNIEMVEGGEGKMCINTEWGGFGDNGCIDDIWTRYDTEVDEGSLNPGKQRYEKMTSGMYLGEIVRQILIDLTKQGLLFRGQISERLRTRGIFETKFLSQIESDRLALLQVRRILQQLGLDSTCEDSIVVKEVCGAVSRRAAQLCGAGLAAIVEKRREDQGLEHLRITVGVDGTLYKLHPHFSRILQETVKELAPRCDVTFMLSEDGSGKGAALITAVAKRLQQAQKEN
Nature of the assay: HKDC1 hexokinase inhibitors, dose response, biochemical, W721R variant (AID 504729). Type of assay: functional.

For assay [2], the target named is Scavenger receptor class B member 1 (Mus musculus, UniProt Q61009). Nature of the assay: inhibitors of SR-BI mediated HDL lipid uptake, dose response, ldlA[mSR-BI] cells, fluorescence, cherry pick (AID 493194).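 Further: cellular uptake of fluorescent DiI-labeled HDL measured as cell fluorescence.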 Type of assay: functional, cell-based.
Scavenger receptor class B member 1, sequence (Q61009 whole entry): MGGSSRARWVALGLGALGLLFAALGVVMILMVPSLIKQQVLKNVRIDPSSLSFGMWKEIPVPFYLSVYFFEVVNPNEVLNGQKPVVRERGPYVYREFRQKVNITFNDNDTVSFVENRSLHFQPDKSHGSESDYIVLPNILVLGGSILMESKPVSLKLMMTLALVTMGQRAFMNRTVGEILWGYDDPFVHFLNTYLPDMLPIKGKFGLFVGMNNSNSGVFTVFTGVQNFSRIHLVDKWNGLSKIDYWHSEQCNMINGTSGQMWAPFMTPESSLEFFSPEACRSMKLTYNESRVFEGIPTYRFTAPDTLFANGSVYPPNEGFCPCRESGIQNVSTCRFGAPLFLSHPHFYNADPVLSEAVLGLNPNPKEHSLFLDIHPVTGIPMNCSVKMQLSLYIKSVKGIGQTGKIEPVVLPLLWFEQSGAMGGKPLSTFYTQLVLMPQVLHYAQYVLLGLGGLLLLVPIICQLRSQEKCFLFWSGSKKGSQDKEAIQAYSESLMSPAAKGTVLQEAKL
A further assay deals with Cytochrome P450 2D6 (Homo sapiens, UniProt P10635). Nature of the assay: qHTS Assay for Inhibitors and Substrates of Cytochrome P450 2D6. [Related pubchem assays: 410 ]. Particulars: read-out: Potency. In kind it is ADME. On the technique in general: qHTS replaces the single test concentration by a dilution series.
Cytochrome P450 2D6, sequence (P10635 whole entry): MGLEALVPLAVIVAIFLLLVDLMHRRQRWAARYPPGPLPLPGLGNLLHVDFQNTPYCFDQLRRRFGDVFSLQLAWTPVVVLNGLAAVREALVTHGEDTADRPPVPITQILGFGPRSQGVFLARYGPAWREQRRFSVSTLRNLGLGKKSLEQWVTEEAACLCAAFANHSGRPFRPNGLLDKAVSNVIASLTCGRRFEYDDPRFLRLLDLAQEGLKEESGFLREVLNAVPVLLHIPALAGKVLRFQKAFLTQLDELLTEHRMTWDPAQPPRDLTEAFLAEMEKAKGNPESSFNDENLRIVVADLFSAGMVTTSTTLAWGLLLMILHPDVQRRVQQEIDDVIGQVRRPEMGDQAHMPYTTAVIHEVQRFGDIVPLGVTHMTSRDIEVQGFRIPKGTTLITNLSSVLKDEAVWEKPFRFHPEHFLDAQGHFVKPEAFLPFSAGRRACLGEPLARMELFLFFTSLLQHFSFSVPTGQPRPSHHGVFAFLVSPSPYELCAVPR
Another assay addresses Cytochrome P450 3A4 (Homo sapiens, UniProt P08684). The conditions noted are these: Potency.
Assay [3] in a line: inhibitors of firefly luciferase expression or activity, dose response, H4 neuroglioma cells, luminescence (AID 1990). Type of assay: functional, cell-based.
Assay [4] is described as follows: Luminescence Cell-Based Dose Response HTS to Identify Inhibitors of 5'UTR Stem-Loop Driven Prion Protein mRNA Translation in H4 Neuroglioblastoma Cells. [Related pubchem assays: 1827 (Project Summary), 1813 (Primary HTS)]. In kind it is functional.
Assay [5] is described as follows: inhibitors of SNCA 5'UTR-driven reporter translation, confirmation, H4 neuroglioma cells, luminescence (AID 1988). Type of assay: functional, cell-based.
The next assay has as its system INS1. The experiment in a line: beta cell apoptosis inhibitors, cytokine rescue, dose response, luminescence, retest (AID 449756).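 Further: cell death triggered by IL-1 beta plus TNF-alpha plus IFN-gamma mixture; protective hits raise ATP signal compared with cytokine alone wells.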 Particulars: Rattus norvegicus. Type of assay: functional, cell-based.
In assay [6] the test system is Streptococcus sp. 'group A'. The experiment in a line: growth inhibition of control SK(-) GAS strain, dose response, counter-screen for streptokinase expression inhibitor project, luminescence, kanamycin, BacTiterGlo, confirmation (AID 1900). In kind it is functional, organism-based.
Assay [7] has as its target Serine/threonine-protein phosphatase PP1-alpha catalytic subunit (Homo sapiens, UniProt P62136). Nature of the assay: PP1 phosphatase inhibitors, dose response, biochemical, fluorescence (AID 2403).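 Further: phosphatase turnover of OMFP into fluorescent 3-O-methylfluorescein.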
The target of the next assay is T3, Streptokinase A (Streptococcus pyogenes serotype M1, UniProt P10520).
T3 sequence (P10520 whole entry): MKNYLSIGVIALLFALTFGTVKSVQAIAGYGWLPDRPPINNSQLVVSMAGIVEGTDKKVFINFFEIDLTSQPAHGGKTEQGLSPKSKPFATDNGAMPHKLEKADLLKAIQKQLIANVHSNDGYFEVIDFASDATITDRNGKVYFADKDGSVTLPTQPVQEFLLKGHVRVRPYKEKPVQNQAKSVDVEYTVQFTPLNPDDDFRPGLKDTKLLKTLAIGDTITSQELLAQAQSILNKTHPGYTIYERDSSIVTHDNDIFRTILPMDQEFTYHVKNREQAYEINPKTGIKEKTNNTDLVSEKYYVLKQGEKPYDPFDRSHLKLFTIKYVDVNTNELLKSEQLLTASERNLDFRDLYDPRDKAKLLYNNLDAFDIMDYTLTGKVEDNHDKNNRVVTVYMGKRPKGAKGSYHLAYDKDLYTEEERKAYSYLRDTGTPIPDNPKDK
Nature of the assay: S. pyogenes streptokinase expression inhibitors, potency, dose response, plasminogen activation absorbance, OD405 (AID 1914).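 Further: secreted streptokinase activity via plasminogen activation per viability signal from cell pellet.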 In kind it is functional, Streptococcus pyogenes M1 GAS.

For assay [8], the target named is Serine/threonine-protein phosphatase (Homo sapiens, UniProt Q9BPW0). The experiment in a line: Counterscreen for inhibitors of PP1: fluorescence-based biochemical high throughput dose response assay to identify inhibitors of Protein Phosphatase 5 (PP5). [Related pubchem assays: 2034 (Summary (PP5 inhibitors)), 1987 (PP5 inhibitors in singlate), 2235 (PP1 inhibitors in singlate)]. (In general: Counterscreens check selectivity or assay interference.)
Serine/threonine-protein phosphatase, sequence (Q9BPW0 whole entry): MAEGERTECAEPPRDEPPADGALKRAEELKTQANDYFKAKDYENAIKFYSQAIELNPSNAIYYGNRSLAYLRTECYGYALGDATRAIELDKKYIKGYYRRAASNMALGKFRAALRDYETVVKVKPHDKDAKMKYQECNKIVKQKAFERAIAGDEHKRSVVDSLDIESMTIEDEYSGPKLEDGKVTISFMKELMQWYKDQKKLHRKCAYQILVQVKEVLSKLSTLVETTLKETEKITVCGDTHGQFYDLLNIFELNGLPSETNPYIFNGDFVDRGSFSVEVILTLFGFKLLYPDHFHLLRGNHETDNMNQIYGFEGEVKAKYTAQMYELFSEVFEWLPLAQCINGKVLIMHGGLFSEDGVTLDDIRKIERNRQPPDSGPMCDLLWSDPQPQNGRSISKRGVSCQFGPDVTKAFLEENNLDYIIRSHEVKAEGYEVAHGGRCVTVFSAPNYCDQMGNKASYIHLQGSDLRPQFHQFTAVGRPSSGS

In a further assay the test system is Streptococcus. Nature of the assay: Group A Streptococcus viability loss, dose response, counter-screen for streptokinase expression inhibitor project, luminescence, BacTiterGlo (AID 1915).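 Further: potency for reduction of bacterial viability or growth.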 Type of assay: functional, organism-based.
Assay [9] in a line: THP-1 cell cytotoxicity, dose response, cytotoxicity control for non-replicating M. tuberculosis project (AID 489025). In kind it is functional.
Assay [10] in a line: Vero E6 cell cytotoxicity, dose response, cytotoxicity control for non-replicating M. tuberculosis project, secondary assay (AID 492998). Type of assay: functional, VeroE6. Particulars: Vero C1008.
Assay [11] deals with T4, Microphthalmia-associated transcription factor (Homo sapiens, UniProt O75030).
T4 sequence (O75030 whole entry): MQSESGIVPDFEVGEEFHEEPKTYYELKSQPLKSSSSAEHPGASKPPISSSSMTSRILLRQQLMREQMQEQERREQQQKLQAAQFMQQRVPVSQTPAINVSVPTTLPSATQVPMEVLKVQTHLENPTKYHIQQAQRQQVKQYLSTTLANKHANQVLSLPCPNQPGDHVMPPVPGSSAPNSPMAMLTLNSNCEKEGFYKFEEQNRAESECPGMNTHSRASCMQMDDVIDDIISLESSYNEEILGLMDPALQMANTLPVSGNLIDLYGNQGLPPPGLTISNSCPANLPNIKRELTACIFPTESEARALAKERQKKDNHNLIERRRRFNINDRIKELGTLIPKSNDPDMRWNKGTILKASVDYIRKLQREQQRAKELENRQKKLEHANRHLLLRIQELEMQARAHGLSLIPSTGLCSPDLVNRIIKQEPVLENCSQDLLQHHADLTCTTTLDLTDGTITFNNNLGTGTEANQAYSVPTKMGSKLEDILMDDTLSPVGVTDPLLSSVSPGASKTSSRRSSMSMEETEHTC
Nature of the assay: TRPM1 promoter luciferase signal decrease, dose response, MITF inhibitor project, cell-based, SK-MEL-5, cherry-picked, set 3 (AID 493073).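 Further: SK-MEL-5 melanoma cells with luciferase driven by the MITF target TRPM1 promoter.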 Type of assay: functional.

Another assay is described as follows: cells. In kind it is functional.
Another assay deals with Vero. Nature of the assay: cells. The conditions noted are these: Chlorocebus sabaeus. In kind it is functional.

Cytochrome P450 3A4, sequence (P08684 whole entry): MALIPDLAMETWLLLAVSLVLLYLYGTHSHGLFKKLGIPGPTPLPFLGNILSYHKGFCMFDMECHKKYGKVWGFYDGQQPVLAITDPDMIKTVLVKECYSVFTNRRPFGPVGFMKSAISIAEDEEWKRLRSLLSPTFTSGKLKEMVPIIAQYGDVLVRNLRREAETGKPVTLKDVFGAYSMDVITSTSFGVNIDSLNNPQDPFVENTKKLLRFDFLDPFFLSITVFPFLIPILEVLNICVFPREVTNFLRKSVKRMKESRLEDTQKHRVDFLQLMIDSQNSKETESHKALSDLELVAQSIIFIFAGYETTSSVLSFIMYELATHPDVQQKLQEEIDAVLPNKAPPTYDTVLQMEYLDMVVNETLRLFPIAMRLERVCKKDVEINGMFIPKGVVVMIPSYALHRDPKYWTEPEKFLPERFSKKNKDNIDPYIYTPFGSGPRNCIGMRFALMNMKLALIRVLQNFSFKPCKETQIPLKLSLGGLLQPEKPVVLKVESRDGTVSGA
Serine/threonine-protein phosphatase PP1-alpha catalytic subunit, sequence (P62136 whole entry): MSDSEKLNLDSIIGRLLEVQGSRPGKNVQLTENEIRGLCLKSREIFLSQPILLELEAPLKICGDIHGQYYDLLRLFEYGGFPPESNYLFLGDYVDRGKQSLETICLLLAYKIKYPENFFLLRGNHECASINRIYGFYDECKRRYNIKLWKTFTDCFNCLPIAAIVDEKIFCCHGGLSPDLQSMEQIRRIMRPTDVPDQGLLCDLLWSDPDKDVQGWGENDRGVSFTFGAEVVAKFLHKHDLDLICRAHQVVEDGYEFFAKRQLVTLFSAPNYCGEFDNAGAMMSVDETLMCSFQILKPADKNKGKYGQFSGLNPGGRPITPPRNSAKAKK

For the compound `CC(=O)OCC1OC(C#Cc2ccc(C)cc2C)C=CC1OC(C)=O` (centres undefined), the AC50 on Cytochrome P450 2C19 is 1.58 µM (inconclusive); on Cytochrome P450 2C9 it was 2.51 µM (inconclusive).

In the case of `O=C1CCCC(=O)C1=NNc1ccc(C(=O)O)cc1`, the AC50 was > 350 µM (inactive) in the assay with HeLa, 30.2 µM (active) on ORF 73 and 10.3 µM (active) in assay [1].

As usually defined, the IC50 is the point on the concentration scale where inhibition reaches its midpoint. `CCOC(=O)c1ccc(NC(=O)CSc2ccc(-c3ccccn3)nn2)cc1`: on Hexokinase HKDC1, the IC50 was 2.31 µM (active).

For the compound `O=C(c1cn(-c2ccccc2)nc1-c1cccc([N+](=O)[O-])c1)N1CCCCC1`, the AC50 in [2] was 23.6 µM (active).

Take `COC(=O)NC(/C(C(=O)OC)=C(\C)NCc1ccccc1)c1cccs1` (centres undefined): the AC50 at Cytochrome P450 2C19 was 0.0316 µM (inconclusive); at Cytochrome P450 2D6, 3.98 µM (inconclusive); at Cytochrome P450 3A4, 3.98 µM (inconclusive); on Cytochrome P450 2C9, 7.94 µM (inconclusive).

By EC50 is commonly meant the concentration giving half of the maximal effect. In the case of `O=C(Nc1cccc(NC(=O)c2cc([N+](=O)[O-])ccc2Cl)n1)c1cc([N+](=O)[O-])ccc1Cl`, the 50% effective concentration (EC50) is 15.3 µM (active) in assay [3], > 60 µM (not active) in [4] and 8.35 µM (active) in assay [5]. In addition, the AC50 was 20.2 µM (active) in [2] and 6.4 µM (active) in the assay with INS1.

As a reminder, the CC50 is the concentration that lowers cell viability or growth by half. `COc1ccc(/C=N/Nc2cc(C)nc(-n3nc(C)cc3C)n2)c(OC)c1`: the EC50 was 9.67 µM (active) in [6], > 150 µM (not active) at Streptokinase A and 13.8 µM (active) in the assay with Streptococcus. The IC50 in assay [7] was 6.68 µM (active); in assay [8], > 67 µM (not active); in the assay “cells” it was 0.24 µM (active). Moreover, the CC50 in assay [9] is 5.91 µM (active); in assay [10], 7.06 µM (active); in the assay with Vero it was 19.8 µM (active). Also, the results for the AC50 (in assay [11]; in the assay on INS1) were 10.4 µM (active) and 2.67 µM (active), respectively.

With `COc1ccc(-c2coc3cc(O)ccc3c2=O)cc1` [FORMONONETIN], the AC50 at Cytochrome P450 2C19 is 7.94 µM (inconclusive); on Cytochrome P450 2D6 it was 10 µM (inconclusive).
